Experimental data published in PMC10923054, “Antiplasmodial peptaibols act through membrane directed mechanisms” (Cell Chemical Biology, 2024).
Like-named read-outs stand apart in the source and are kept apart here. Square brackets hold non-standard residues; d marks the D form. Peptide text beside a SMILES is read from it. Leu(ol) = CC(C)C[C@H](N)CO; dIva = CC[C@@](C)(N)C(=O)O; Aib = CC(C)(N)C(=O)O

Assays:
[1] = system: P. falciparum 3D7 transcriptome; test: RNASeq analysis of treated culture; format: cell-based; conditions: 3D7, 1 h, EC50 concentration, vs vehicle
Procedure: P. falciparum 3D7 culture was synchronized as previously described[64] by combination of MACS column (Mitenyi Biotic, Auburn, CA)[65] and 5% sorbitol.[66] In brief, asynchronous culture with a majority ring stage population was centrifuged, pelleted, and resuspended in 5% sorbitol and incubated at room temp for 10 min. Parasites were then washed with culture media and returned to the culture incubator. For MACS column, columns were rinsed once with RPMI prior to parasite addition. After flow-through was complete, parasites on the column were eluted onto culture plates and returned to the culture incubator. […] RNA was then extracted using Direct-zol™ RNA Miniprep Plus (Zymo Research Corporation, Irvine, CA.) following manufacturers protocols. In brief, culture was lysed with 0.1% saponin and incubated for 5 min prior to centrifuging at 900 x g for 6 min at 4°C. Cells were washed once with RPMI then once with PBS before resuspension in triazole reagent. Samples were mixed vigorously for 5 min, centrifuged at 16,000 x g for 1 min, then transferred to a RNase free tube, and an equal volume of EtOH was added. After mixing, sample was loaded onto column and centrifuged at 16,000 x g for 30 sec then washed with pre-wash buffer. Columns were incubated with DNase buffer for 15 min then washed with pre-wash buffer. Two more wash steps were performed before allowing any excess EtOH to dry for 2 min. Finally, columns were transferred to a new RNase free tube in which RNA was eluted with RNase free water.
Preliminary integrity and concentration determination was performed via nanodrop and RNA gel electrophoresis, prior to a full integrity check via Agilent Technologies 2100 Bioanalyzer. After rRNA depletion, RNA fragmentation was performed using elevated temperatures and divalent cation buffers. Library preparation was done using the Illumina TruSeq-stranded-total-RNA-sample preparation protocol, with Agilent Technologies 2100 Bioanalyzer High Sensitivity DNA Chip for quality control, and Illumina’s NovaSeq 6000 sequencing system for paired-ended sequencing. For transcript assembly, Cutadapt[71] and LC Sciences in house perl scripts were used to remove low quality or undetermined bases and reads, along with adaptor contamination. Sequence quality was then confirmed using FastQC.[72] Reads were mapped to the P. falciparum genome using Bowtie2[73] and HISAT2,[74] then assembled using StringTie.[75] To assist in the filtering process, the transcriptomes from HZ NPDG-I and the vehicle control were assembled simultaneously to construct a merged transcriptome using perl scripts and gffcompare.[76] Finally, StringTie[75] and edgeR[77] were used to estimate transcript expression levels by calculating FPKM using the following equation: FPKM=totalexonfragments/mappedreads(millions)xexonlength(kB)
To calculate p value, a parametric F-test comparing nested linear models was performed using edgeR.[77] The q-values were also calculated using a Benjamini-Hochberg procedure. Differential expression for mRNA was calculated at the gene level (all transcript isoforms grouped as 1 gene) and the transcript level (all transcript isoforms ranked individually). […] The coding potential of the remaining transcripts was then determined using CPC[78] and CNCI,[79] and transcripts with a CPC score <0.5 and/or CNCI score <0 were removed. […] The predicted cis-targets of the novel lncRNAs were then determined for the coding genes 100,000 bp upstream and downstream with perl script. […]

Dd2-B2 = format: cell-based, P. falciparum
Procedure: Screening of HZ NPDG-I resistant clones was performed at 1% parasitemia, 0.2% hematocrit with flow cytometry in V-shaped 96-well plates. Briefly, compounds were subjected to a 3-fold serial dilution with the highest concentration set at 4 μM or 8 μM. Eleven dilution points were included in addition to no-drug controls. Three technical replicates were set up for each compound at each dilution point. The Dd2-B2 parent line, or the clonal line 1B2, 2B3, 3A3, or 1E2 were added at 0.4% hematocrit and 1% parasitemia to the diluted compounds at a 1:1 ratio. The plate was incubated at 37°C for 72 h in a chamber filled with a hypoxic gas mixture (3% oxygen, 5% carbon dioxide, and 92% nitrogen). After incubation, a blood pellet was formed at the bottom of each well of the 96-well plate. Supernatant was removed without disturbing the pellet, and 20 μl of SYTO 61(1:10,000 dilution; Thermo Fisher Scientific, Cat No. S11343) in PBS was added to each well and incubated for 15 mins at room temperature. The cells in each well were then diluted with 180 μl of PBS and subjected to flow cytometry for parasitemia determination using the HTS (High-Throughput Sampler) of BD FACSCanto II (BD Biosciences, NJ). Flow cytometry data was analyzed using FlowJo Version 10.4.0. Dose response curves were generated and IC50 values obtained with GraphPad Prism Version 9.1.1.
A clone of the Dd2 strain (Dd2-B2) of P. falciparum was used for in vitro evolution of resistance against harzianin NPDG I. Three flasks of 1.2 x 10^8 parasites were continuously exposed to a stepwise-increasing concentration of the compound over ∼3 months starting from 20 nM up to a final concentration of 100 nM. Once a stable rightward shift in 72 h IC50 was observed, cultures were subjected to limiting dilution to obtained harzianin-resistant clones. Each clone was expanded, phenotyped to confirm resistance, and submitted for whole genome sequencing. An untreated flask of Dd2-B2 parasites was maintained in parallel throughout the course of in vitro selection as a control.

CC[C@H](C)[C@H](NC(=O)[C@H](CC(C)C)NC(=O)[C@H](CCC(N)=O)NC(=O)[C@@](C)(CC)NC(C)=O)C(=O)NC(C)(C)C(=O)N1CCC[C@H]1C(=O)N[C@](C)(CC)C(=O)N[C@@H](CC(C)C)C(=O)NC(C)(C)C(=O)N1CCC[C@H]1C(=O)N[C@H](CO)CC(C)C [HZ NPDG-I, harzianin NPDG I] (Ac-[dIva]QLI[Aib]P[dIva]L[Aib]P[Leu(ol)])
RNA-seq log2fc, PF3D7_0106100 [1]: −1.35
RNA-seq log2fc, PF3D7_0519200.1 [1]: −5.06
RNA-seq log2fc, PF37D_1419800.1 [1]: −3.23
RNA-seq log2fc, lncRNA MSTRG.194.1 [1]: 16.51
RNA-seq log2fc, lncRNA MSTRG.363.2 [1]: 14.54
IC50 (Dd2-B2; flask 1, read-out: IC50, Dd2-B2 parent): 0.0536 nM
IC50 (Dd2-B2; flask 2, read-out: IC50, Dd2-B2 parent): 0.0222 nM
IC50 (Dd2-B2; flask 3, read-out: IC50, DD2-B2 parent): 0.0437 nM
